Reference: paper PMC6332508, “A Promising PET Tracer for Imaging of α7 Nicotinic Acetylcholine Receptors in the Brain: Design, Synthesis, and in Vivo Evaluation of a Dibenzothiophene-Based Radioligand” (Molecules, 2015)
Several values for one entry are separate records, joined by “and”; a condition that tells them apart may be missing. Identical values can stand only once.

System: α7 nAChR
Assay: Dynamic PET studies in piglets with kinetic modelling (2TCM)
Format: in vivo
Design: clearance rate constant k2, mean: unit not given here
Settings: for VND / BPND / Rate Constant K1 / Rate Constant k2 / Rate Constant k3 / Rate Constant k4: piglet brain, 240 min scan data, n = 3; for total volume of distribution VT: piglet, K1/k2(1 + k3/k4)
Protocol: One-tissue and two-tissue compartment models (1TCM and 2TCM) were evaluated for mathematical description of [^18F]10a time-activity curves (TACs) in pig brain regions (Figure 3) using metabolite-corrected arterial plasma input functions. The 2TCM was identified as the more appropriate model based on its smaller Akaike information criterion (AIC) value. The four rate constants K1, k2, k3, and k4 were fitted and the non-displaceable volume of distribution (VND = K1/k2) and the binding potential (BPND = k3/k4) as defined by Innis et al. were calculated for each region of interest (Table 3 and Table 4).
Six female animals were used in this study with anesthesia and surgery performed as described previously. In brief, the animals received initially a premedication with midazolam (1 mg∙kg^−1 i.m.) followed by induction of anesthesia with 3% isoflurane in 70% N2O/30% O2. All incision sites were infiltrated with 1% lidocaine, and the anesthesia was maintained with 1.5% isoflurane throughout the surgical procedure. A central venous catheter was introduced through the left external jugular vein and used for the administration of the radiotracer and drugs, and for volume substitution with heparinized (50 IE∙mL^−1) lactated Ringer’s solution (2 mL∙kg^−1∙h^−1). An endotracheal tube was inserted by tracheotomy for artificial ventilation (Servo Ventilator 900C, Siemens-Elema, Solna, Sweden) after immobilization with pancuronium bromide (0.2 mg∙kg^−1∙h^−1). The artificial ventilation was adjusted to obtain normoxia and normocapnia (Radiometer ABL 500, Copenhagen, Denmark). Polyurethane catheters (i.d., 0.5 mm) were advanced through the left and the right femoral arteries into the abdominal aorta to withdraw arterial blood samples for regular monitoring of blood gases and for radiotracer input function measurements and metabolite analyses. The body temperature was monitored by a rectal temperature probe and maintained at ~38 °C by a heating pad. After the surgical procedure has been completed, anesthesia was maintained with 0.5% isoflurane in 70% N2O/30% O2, and the animals were allowed to stabilize for 1 h before imaging procedure.
PET imaging was performed according to the protocol described recently. In brief, a clinical tomograph (ECAT Exact HR+; Siemens Healthcare GmbH, Erlangen, Germany) was used with animals lying prone with the head placed in a custom-made head holder. For attenuation and scatter correction, transmission scans were acquired using three rotating ^68Ge rod sources. The radiotracer was injected as an intravenous (i.v.) bolus (10 mL saline with 340–494 MBq [^18F]10a) by a syringe pump within 2 min followed by flushing with 10 mL heparinized saline (50 IE∙mL^−1). PET scanning started at the time of injection (0 min) and dynamic emission data were acquired for a total of 240 min. Three animals were investigated under baseline conditions, and another three under blocking conditions with administration of 3 mg∙kg^−1 i.v. of the α7 nAChR partial agonist NS6740 at 3 min before radiotracer injection followed by a continuous infusion throughout the scan (1 mg∙kg^−1∙h^−1).
Arterial blood was sampled using a peristaltic pump during the first 20 min of the scan followed by manual sampling at 25, 30, 40, 50, 60, 90, 120, 150, 180, 210, and 240 min after injection. Plasma was obtained by centrifugation (13,000 rpm, 2 min at 21 °C) and total radioactivity concentration was measured using a gamma-counter (1470 Wizard; PerkinElmer, Shelton, CT, USA) cross-calibrated to the PET scanner. In addition, arterial whole blood was sampled manually at 4, 16, 30, 60, and 120 min p.i. and plasma obtained for metabolite analyses to determine the fraction of non-metabolized [^18F]10a.
The plasma input function was corrected for the presence of radioactive metabolites by determination of the parent fraction as described previously. […]

[1] = Occipital Cortex, blocking (NS6740)
[2] = Parietal Cortex, blocking (NS6740)

O=S1(=O)c2ccc([18F])cc2-c2ccc(N3CCN4CCC3CC4)cc21 [[^18F]10a]
VND (Occipital Cortex, baseline): 4.07 ± 2.23 | BPND [1]: 0.95 ± 1.03 | Rate Constant K1 [1]: 0.668 ± 0.103 mL·cm^−3·min^−1 | Rate Constant k2 [1]: 0.064 ± 0.019 min⁻¹ | Rate Constant k3 [1]: 0.022 ± 0.032 min⁻¹ | Rate Constant k4 [1]: 0.013 ± 0.023 min⁻¹ | VND [1]: 11.36 ± 4.41 | BPND (Parietal Cortex, baseline): 3.47 ± 1.65 | Rate Constant K1 (Parietal Cortex, baseline): 0.399 ± 0.038 mL·cm^−3·min^−1 | Rate Constant k2 (Parietal Cortex, baseline): 0.140 ± 0.089 min⁻¹ | Rate Constant k3 (Parietal Cortex, baseline): 0.126 ± 0.135 min⁻¹ | Rate Constant k4 (Parietal Cortex, baseline): 0.031 ± 0.021 min⁻¹ | VND (Parietal Cortex, baseline): 3.88 ± 2.49 | BPND [2]: 0.82 ± 0.88 | Rate Constant K1 [2]: 0.659 ± 0.120 mL·cm^−3·min^−1 | Rate Constant k2 [2]: 0.055 ± 0.013 min⁻¹ | Rate Constant k3 [2]: 0.015 ± 0.020 min⁻¹ | Rate Constant k4 [2]: 0.011 ± 0.021 min⁻¹ | VND [2]: 12.58 ± 4.52 | BPND (Pons, baseline): 2.76 ± 0.81 | Rate Constant K1 (Pons, baseline): 0.440 ± 0.045 mL·cm^−3·min^−1 | Rate Constant k2 (Pons, baseline): 0.149 ± 0.059 min⁻¹ | Rate Constant k3 (Pons, baseline): 0.068 ± 0.042 min⁻¹ | Rate Constant k4 (Pons, baseline): 0.026 ± 0.019 min⁻¹ | VND (Pons, baseline): 3.32 ± 1.40 | BPND (Pons, blocking (NS6740)): 0.76 ± 1.16 | Rate Constant K1 (Pons, blocking (NS6740)): 0.670 ± 0.092 mL·cm^−3·min^−1 | Rate Constant k2 (Pons, blocking (NS6740)): 0.084 ± 0.030 min⁻¹ | Rate Constant k3 (Pons, blocking (NS6740)): 0.019 ± 0.023 min⁻¹ | Rate Constant k4 (Pons, blocking (NS6740)): 0.012 ± 0.016 min⁻¹ | VND (Pons, blocking (NS6740)): 8.93 ± 3.96 | BPND (Striatum, baseline): 3.98 ± 1.40 | Rate Constant K1 (Striatum, baseline): 0.382 ± 0.028 mL·cm^−3·min^−1 | Rate Constant k2 (Striatum, baseline): 0.144 ± 0.079 min⁻¹ | Rate Constant k3 (Striatum, baseline): 0.114 ± 0.093 min⁻¹ | Rate Constant k4 (Striatum, baseline): 0.027 ± 0.014 min⁻¹ | VND (Striatum, baseline): 3.35 ± 1.81 | BPND (Striatum, blocking (NS6740)): 0.75 ± 1.29 | Rate Constant K1 (Striatum, blocking (NS6740)): 0.624 ± 0.143 mL·cm^−3·min^−1 | Rate Constant k2 (Striatum, blocking (NS6740)): 0.057 ± 0.015 min⁻¹ | Rate Constant k3 (Striatum, blocking (NS6740)): 0.020 ± 0.025 min⁻¹ | Rate Constant k4 (Striatum, blocking (NS6740)): 0.011 ± 0.017 min⁻¹ | VND (Striatum, blocking (NS6740)): 11.78 ± 4.91 | BPND (Thalamus, baseline): 3.51 ± 1.13 | Rate Constant K1 (Thalamus, baseline): 0.448 ± 0.027 mL·cm^−3·min^−1 | Rate Constant k2 (Thalamus, baseline): 0.150 ± 0.071 min⁻¹ | Rate Constant k3 (Thalamus, baseline): 0.111 ± 0.085 min⁻¹ | Rate Constant k4 (Thalamus, baseline): 0.030 ± 0.018 min⁻¹ | VND (Thalamus, baseline): 3.67 ± 2.10 | BPND (Thalamus, blocking (NS6740)): 0.88 ± 1.00 | Rate Constant K1 (Thalamus, blocking (NS6740)): 0.762 ± 0.129 mL·cm^−3·min^−1 | Rate Constant k2 (Thalamus, blocking (NS6740)): 0.070 ± 0.025 min⁻¹ | Rate Constant k3 (Thalamus, blocking (NS6740)): 0.023 ± 0.031 min⁻¹ | Rate Constant k4 (Thalamus, blocking (NS6740)): 0.012 ± 0.021 min⁻¹ | VND (Thalamus, blocking (NS6740)): 12.09 ± 5.31 | BPND (Whole, baseline): 3.31 ± 1.02 | Rate Constant K1 (Whole, baseline): 0.362 mL·cm^−3·min^−1 and 0.362 ± 0.038 mL·cm^−3·min^−1 | Rate Constant k2 (Whole, baseline): 0.131 ± 0.062 min⁻¹ | Rate Constant k3 (Whole, baseline): 0.093 ± 0.074 min⁻¹ | Rate Constant k4 (Whole, baseline): 0.027 ± 0.018 min⁻¹ | VND (Whole, baseline): 3.32 ± 1.74 | BPND (Whole, blocking (NS6740)): 0.84 ± 1.07 | Rate Constant K1 (Whole, blocking (NS6740)): 0.598 ± 0.108 mL·cm^−3·min^−1 | Rate Constant k2 (Whole, blocking (NS6740)): 0.062 ± 0.015 min⁻¹ | Rate Constant k3 (Whole, blocking (NS6740)): 0.018 ± 0.022 min⁻¹ | Rate Constant k4 (Whole, blocking (NS6740)): 0.011 ± 0.018 min⁻¹ | VND (Whole, blocking (NS6740)): 10.27 ± 3.94 | total volume of distribution VT (cerebellum, baseline): 13 mL∙cm^−3 | total volume of distribution VT (thalamus, baseline): 17 mL∙cm^−3 | clearance rate constant k2, mean (whole brain, baseline): 0.131
